Our source for the IC50 values is patent publication US12447153B2, “HER2 mutation inhibitors” (Array BioPharma Inc., priority 2021, dated 2025).

In experiment [1] the target is EGFR wild type (EGFR WT) (Homo sapiens (Human), UniProt P00533). The experiment in a line: Cellular Phosphorylation Assay, Assay 5 (EGF-stimulated EGFR phosphorylation, NIH 3T3 cells). The class given is cell-based. The settings on record: cellular EGFR WT phosphorylation, EGF-stimulated.
The target in experiment [2] is EGFR (Homo sapiens (Human), UniProt P00533). The experiment in a line: ErbB Enzyme Assay (HTRF KinEASE-TK), Assay 3. The settings on record: EGFR enzyme assay. In kind it is biochemical. Background: Time-resolved FRET reads energy transfer from a long-lived donor to a nearby acceptor.
For experiment [3], the target named is ErbB2 WT (Homo sapiens (Human), UniProt P04626). The experiment in a line: ErbB Enzyme Assay (HTRF KinEASE-TK), Assay 2. In kind it is biochemical. To be noted: ErbB2 WT enzyme assay.
Experiment [4] concerns the target ErbB2 with Exon 20 YVMA insertion (HER2-YVMA) (Homo sapiens (Human), UniProt P04626, INS775YVMA). The experiment in a line: Cellular Phosphorylation Assay, Assay 4 (constitutive ErbB2 phosphorylation, NIH 3T3 cells). In kind it is cell-based. The settings on record: cellular ErbB2 YVMA phosphorylation.

Sequence of EGFR (P00533 25-1210): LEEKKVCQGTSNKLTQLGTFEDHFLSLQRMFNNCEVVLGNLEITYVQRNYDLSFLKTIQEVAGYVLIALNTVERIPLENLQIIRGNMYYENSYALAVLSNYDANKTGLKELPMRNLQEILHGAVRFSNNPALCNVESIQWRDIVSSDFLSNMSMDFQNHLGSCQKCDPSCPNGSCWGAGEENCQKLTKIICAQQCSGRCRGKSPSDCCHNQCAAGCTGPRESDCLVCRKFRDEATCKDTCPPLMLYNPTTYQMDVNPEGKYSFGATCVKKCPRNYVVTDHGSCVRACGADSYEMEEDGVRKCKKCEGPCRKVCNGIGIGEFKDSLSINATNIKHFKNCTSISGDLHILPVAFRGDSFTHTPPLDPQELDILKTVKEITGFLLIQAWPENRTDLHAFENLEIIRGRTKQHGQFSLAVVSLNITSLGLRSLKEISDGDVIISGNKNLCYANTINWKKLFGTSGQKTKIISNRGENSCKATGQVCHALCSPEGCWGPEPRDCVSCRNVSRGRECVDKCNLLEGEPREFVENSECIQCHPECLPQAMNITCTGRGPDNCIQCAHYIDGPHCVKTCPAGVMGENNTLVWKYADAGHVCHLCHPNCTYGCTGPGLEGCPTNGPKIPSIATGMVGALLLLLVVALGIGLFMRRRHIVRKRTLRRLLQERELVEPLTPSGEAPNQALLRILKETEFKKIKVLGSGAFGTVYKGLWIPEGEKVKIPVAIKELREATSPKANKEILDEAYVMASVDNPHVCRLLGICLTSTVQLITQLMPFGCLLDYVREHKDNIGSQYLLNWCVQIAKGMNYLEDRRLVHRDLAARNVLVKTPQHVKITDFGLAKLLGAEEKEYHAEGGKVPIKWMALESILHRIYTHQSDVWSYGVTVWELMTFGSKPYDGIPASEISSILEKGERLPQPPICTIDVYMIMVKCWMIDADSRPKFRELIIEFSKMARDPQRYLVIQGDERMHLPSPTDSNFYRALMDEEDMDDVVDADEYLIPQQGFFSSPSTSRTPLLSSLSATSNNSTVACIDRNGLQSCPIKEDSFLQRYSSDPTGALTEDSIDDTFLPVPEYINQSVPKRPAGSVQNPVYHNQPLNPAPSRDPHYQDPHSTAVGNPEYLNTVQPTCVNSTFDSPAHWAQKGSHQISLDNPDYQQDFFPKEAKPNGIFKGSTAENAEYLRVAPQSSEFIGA
Sequence of EGFR wild type (EGFR WT) (P00533 25-1210): as above
Sequence of ErbB2 with Exon 20 YVMA insertion (HER2-YVMA) (P04626 other isoform, or with tags, fused parts or gaps ins YVMA behind 775): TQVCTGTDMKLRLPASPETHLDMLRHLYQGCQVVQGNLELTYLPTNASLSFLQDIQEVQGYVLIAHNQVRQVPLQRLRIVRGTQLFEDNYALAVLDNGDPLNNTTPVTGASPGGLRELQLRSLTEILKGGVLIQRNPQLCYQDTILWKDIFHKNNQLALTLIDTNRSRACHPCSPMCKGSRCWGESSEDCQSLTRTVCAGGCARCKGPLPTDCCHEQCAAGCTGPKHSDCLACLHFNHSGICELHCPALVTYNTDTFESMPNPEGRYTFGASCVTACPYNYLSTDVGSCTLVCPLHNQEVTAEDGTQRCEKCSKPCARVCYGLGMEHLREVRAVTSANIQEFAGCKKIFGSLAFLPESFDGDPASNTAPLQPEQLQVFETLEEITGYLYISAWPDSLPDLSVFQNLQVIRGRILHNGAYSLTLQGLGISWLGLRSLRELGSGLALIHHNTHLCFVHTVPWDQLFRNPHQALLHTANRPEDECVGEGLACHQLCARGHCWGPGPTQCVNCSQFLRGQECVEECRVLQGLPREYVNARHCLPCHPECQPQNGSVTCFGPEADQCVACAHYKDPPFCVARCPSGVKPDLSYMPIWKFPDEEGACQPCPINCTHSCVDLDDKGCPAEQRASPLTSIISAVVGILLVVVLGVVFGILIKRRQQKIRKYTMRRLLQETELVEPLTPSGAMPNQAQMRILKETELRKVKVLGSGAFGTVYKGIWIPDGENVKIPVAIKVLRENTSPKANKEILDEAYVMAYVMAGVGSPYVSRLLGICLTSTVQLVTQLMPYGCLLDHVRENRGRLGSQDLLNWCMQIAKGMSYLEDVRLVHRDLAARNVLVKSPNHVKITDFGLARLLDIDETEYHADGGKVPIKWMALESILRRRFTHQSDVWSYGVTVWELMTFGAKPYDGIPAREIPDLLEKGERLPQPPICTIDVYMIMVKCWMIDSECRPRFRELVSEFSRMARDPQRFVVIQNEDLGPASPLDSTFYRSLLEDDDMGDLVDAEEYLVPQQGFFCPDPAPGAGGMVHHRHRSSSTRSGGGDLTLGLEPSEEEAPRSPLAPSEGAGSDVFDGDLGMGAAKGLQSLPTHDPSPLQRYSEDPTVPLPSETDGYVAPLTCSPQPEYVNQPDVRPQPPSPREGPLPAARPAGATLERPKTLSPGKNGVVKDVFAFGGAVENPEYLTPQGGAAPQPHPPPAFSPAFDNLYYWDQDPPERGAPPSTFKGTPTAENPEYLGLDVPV
Sequence of ErbB2 WT (P04626 23-1255): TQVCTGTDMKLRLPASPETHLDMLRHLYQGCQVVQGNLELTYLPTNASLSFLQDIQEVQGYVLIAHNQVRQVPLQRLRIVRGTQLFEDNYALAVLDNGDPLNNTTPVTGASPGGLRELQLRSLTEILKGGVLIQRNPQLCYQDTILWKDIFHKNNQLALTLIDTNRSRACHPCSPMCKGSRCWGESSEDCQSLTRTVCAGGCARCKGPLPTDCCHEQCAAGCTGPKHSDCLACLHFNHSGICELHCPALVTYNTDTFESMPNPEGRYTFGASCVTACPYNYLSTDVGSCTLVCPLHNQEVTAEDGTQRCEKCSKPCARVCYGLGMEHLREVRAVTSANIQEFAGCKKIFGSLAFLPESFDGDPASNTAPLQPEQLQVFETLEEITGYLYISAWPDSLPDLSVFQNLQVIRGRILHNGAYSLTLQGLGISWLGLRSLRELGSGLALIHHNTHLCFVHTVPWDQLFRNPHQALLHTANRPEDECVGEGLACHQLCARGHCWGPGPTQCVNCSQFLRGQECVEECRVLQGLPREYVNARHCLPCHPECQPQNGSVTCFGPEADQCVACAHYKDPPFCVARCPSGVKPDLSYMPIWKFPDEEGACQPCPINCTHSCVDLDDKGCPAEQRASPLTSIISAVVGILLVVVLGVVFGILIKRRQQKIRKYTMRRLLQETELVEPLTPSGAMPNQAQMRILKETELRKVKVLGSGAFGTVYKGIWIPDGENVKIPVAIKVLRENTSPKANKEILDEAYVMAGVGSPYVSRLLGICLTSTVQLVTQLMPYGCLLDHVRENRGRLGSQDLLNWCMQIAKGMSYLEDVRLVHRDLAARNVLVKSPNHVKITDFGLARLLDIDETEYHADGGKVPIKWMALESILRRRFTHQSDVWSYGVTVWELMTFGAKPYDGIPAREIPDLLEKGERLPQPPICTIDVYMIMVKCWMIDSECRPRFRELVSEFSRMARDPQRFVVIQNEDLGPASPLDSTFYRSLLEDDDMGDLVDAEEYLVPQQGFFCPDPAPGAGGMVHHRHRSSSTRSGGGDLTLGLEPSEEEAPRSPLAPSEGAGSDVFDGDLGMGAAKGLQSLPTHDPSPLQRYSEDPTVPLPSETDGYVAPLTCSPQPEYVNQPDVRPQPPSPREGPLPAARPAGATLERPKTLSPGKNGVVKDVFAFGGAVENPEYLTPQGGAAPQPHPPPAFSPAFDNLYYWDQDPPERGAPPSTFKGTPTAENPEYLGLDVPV

Consider `C=CC(=O)N1C[C@@H]2C[C@H](c3ccc4ncnc(Nc5cc(C)c(Oc6ccn7ncnc7c6)cc5F)c4n3)C[C@H]1C2` [Example 390], for which the half-maximal inhibitory concentration (IC50) (in general, the point on the concentration scale where inhibition reaches its midpoint) in experiment [1] is 1250 nM; in experiment [2], 2210 nM; in experiment [3], 68.1 nM; in experiment [4], 30.2 nM.
The like results for `C=CC(=O)N1C[C@@H]2C[C@H](c3ccc4ncnc(Nc5ccc(Oc6ccn7ncnc7c6)c(C)c5F)c4n3)C[C@H]1C2` [Example 391] were, in that order, 238 nM, 368 nM, 23.9 nM and 19.8 nM.
In the same order, the values of `C=CC(=O)N1[C@@H]2CC[C@H]1[C@H](c1ccc3ncnc(Nc4cc(C)c(Oc5ccn6ncnc6c5)cc4F)c3n1)C2` [Example 392] are ≥ 5000 nM, 1480 nM, 9.8 nM and 82 nM.
In the same order, the values of `C=CC(=O)N1C[C@H]2CC[C@@H]1[C@H](c1ccc3ncnc(Nc4ccc(Oc5ccn6ncnc6c5)c(C)c4F)c3n1)C2` [Example 397] are ≥ 5000 nM, 1120 nM, 9.7 nM and 49.2 nM.
Take `C=CC(=O)N1C[C@H]2CC[C@@H]1[C@@H](c1ccc3ncnc(Nc4ccc(Oc5ccn6ncnc6c5)c(C)c4F)c3n1)C2` [Example 398]: the half-inhibitory concentration (IC50) in experiment [1] is ≥ 5000 nM; in experiment [2], 736 nM; in experiment [3] it was 15.4 nM; in experiment [4], 74 nM.
For the compound `C=CC(=O)N1CCCC(c2ccc3ncnc(Nc4ccc(Oc5ccn6ncnc6c5)c(Cl)c4F)c3n2)CC1` (stereo not drawn) [Example 399], the half-inhibitory concentration (IC50) in experiment [1] was 461 nM; in experiment [2] it was 177 nM; in experiment [3], 1.9 nM; in experiment [4], 19 nM.
In the same order, the values of `C=CC(=O)N1CCCC(c2ccc3ncnc(Nc4cc(Cl)c(Oc5ccn6ncnc6c5)cc4F)c3n2)CC1` (stereo not drawn) [Example 400] are ≥ 5000 nM, 3240 nM, 16 nM and 45.6 nM.
The like results for `C=CC(=O)N1C[C@H]2CC[C@H](c3ccc4ncnc(Nc5ccc(Oc6ccn7ncnc7c6)c(C)c5)c4n3)[C@H]2C1` [Example 409] were, in that order, ≥ 5000 nM, 1970 nM, 43.1 nM and 34.6 nM.
The like results for `C=CC(=O)N1C[C@H]2CC[C@H](c3ccc4ncnc(Nc5cc(C)c(Oc6ccn7ncnc7c6)cc5F)c4n3)[C@H]2C1` [Example 410] were, in that order, ≥ 5000 nM, 3670 nM, 120 nM and 82.7 nM.
Turning to `C=CC(=O)N1C[C@H]2CC[C@H](c3ccc4ncnc(Nc5ccc(Oc6ccn7ncnc7c6)c(C)c5F)c4n3)[C@H]2C1` [Example 411], the IC50 worked out at 1440 nM in experiment [1], 598 nM in experiment [2], 44.9 nM in experiment [3] and 35.2 nM in experiment [4].
For the compound `C=CC(=O)N1[C@@H]2CCC[C@H]1[C@@H](c1ccc3ncnc(Nc4cc(C)c(Oc5ccn6ncnc6c5)cc4F)c3n1)C2` [Example 414], the IC50 in experiment [1] is ≥ 5000 nM; in experiment [2] it was 866 nM; in experiment [3] it was 30.1 nM; in experiment [4], 57.6 nM.
As for `C=CC(=O)N1[C@@H]2CC[C@H]1[C@H](c1ccc3ncnc(Nc4cc(C)c(Oc5cnc6c(c5)ncn6C)cc4F)c3n1)C2` [Example 417], the IC50 in experiment [1] was ≥ 5000 nM; in experiment [2], ≥ 10000 nM; in experiment [3] it was 215 nM; in experiment [4], 51.6 nM.
The like results for `C=CC(=O)N1C[C@H]2C[C@@H]1[C@H](c1ccc3ncnc(Nc4ccc(Oc5cnc6c(c5)ncn6C)c(C)c4F)c3n1)C2` [Example 418] were, in that order, ≥ 5000 nM, 5600 nM, 119 nM and 33.6 nM.
In the same order, the values of `C=CC(=O)N1C[C@H]2CC[C@@H]1C[C@H]2c1ccc2ncnc(Nc3cc(C)c(Oc4cnc5c(c4)ncn5C)cc3F)c2n1` [Example 421] are ≥ 5000 nM, ≥ 10000 nM, 217 nM and 94.3 nM.
The like results for `C=CC(=O)N1C[C@H]2CC[C@@H]1C[C@@H]2c1ccc2ncnc(Nc3ccc(Oc4cnc5c(c4)ncn5C)c(C)c3F)c2n1` [Example 422] were, in that order, ≥ 5000 nM, 4010 nM, 157 nM and 51.7 nM.
As for `C=CC(=O)N1C[C@H]2CC[C@@H]1C[C@H]2c1ccc2ncnc(Nc3ccc(Oc4cnc5c(c4)ncn5C)c(C)c3F)c2n1` [Example 423], the IC50 in experiment [1] is ≥ 5000 nM; in experiment [2], 2550 nM; in experiment [3] it was 125 nM; in experiment [4] it was 70.8 nM.
As to `C=CC(=O)N1C[C@H]2CC[C@@H]1[C@H](c1ccc3ncnc(Nc4cc(C)c(Oc5cnc6c(c5)ncn6C)cc4F)c3n1)C2` [Example 424], the IC50 is ≥ 5000 nM in experiment [1], ≥ 10000 nM in experiment [2], 405 nM in experiment [3] and 44.8 nM in experiment [4].
In the same order, the values of `C=CC(=O)N1C[C@H]2CC[C@@H]1[C@@H](c1ccc3ncnc(Nc4cc(C)c(Oc5cnc6c(c5)ncn6C)cc4F)c3n1)C2` [Example 425] are ≥ 5000 nM, ≥ 10000 nM, 212 nM and 50.5 nM.
The like results for `C=CC(=O)N1C[C@H]2CC[C@@H]1[C@@H](c1ccc3ncnc(Nc4ccc(Oc5cnc6c(c5)ncn6C)c(C)c4F)c3n1)C2` [Example 427] were, in that order, ≥ 5000 nM, 2990 nM, 104 nM and 56.4 nM.
The like results for `C=CC(=O)N1[C@H]2CC[C@@H]1[C@H](c1ccc3ncnc(Nc4cc(C)c(Oc5ccn6ncnc6c5)cc4F)c3n1)CC2` [Example 428] were, in that order, 954 nM, 1480 nM, 62.4 nM and 24.7 nM.
For the compound `C=CC(=O)N1[C@H]2CC[C@@H]1[C@H](c1ccc3ncnc(Nc4ccc(Oc5ccn6ncnc6c5)c(C)c4F)c3n1)CC2` [Example 429], the concentration for half-maximal inhibition (IC50) in experiment [1] stood at 447 nM; in experiment [2], 520 nM; in experiment [3] it was 28.4 nM; in experiment [4] it was 13.8 nM.
In the same order, the values of `C=CC(=O)N1CCN(c2ccc3ncnc(Nc4cc(Cl)c(Oc5cnc6c(c5)ncn6C)cc4F)c3n2)C[C@H]1C1CC1` [Example 430] are ≥ 5000 nM, ≥ 10000 nM, 308 nM and 38.2 nM.
The like results for `C=CC(=O)N1C2CCC1CN(c1ccc3ncnc(Nc4ccc(Oc5ccc6c(c5)ncn6C)c(C)c4F)c3n1)C2` [Example 431] were, in that order, 393 nM, 712 nM, 44.9 nM and 13.1 nM.
As to `C=CC(=O)N1CCN(c2ccc3ncnc(Nc4ccc(Oc5ccc6scnc6c5)c(C)c4)c3n2)CC1(C)C` [Example 432], the IC50 worked out at 281 nM in experiment [1], 210 nM in experiment [2], 37 nM in experiment [3] and 15.2 nM in experiment [4].
